Data published in patent publication US20160106708A1, “USE OF ANTIOXIDANTS FOR THE TREATMENT OF COGNITIVE AND BEHAVIOURAL DISORDERS IN INDIVIDUALS WITH FRAGILE X SYNDROME” (Servicio Andaluz de Salud, priority 2010, published 2016).

Legend:
[1] = tested on: patients with Fragile X syndrome; details: cited from earlier work; for Efficacy on symptoms in patients with Fragile X Syndrome: published trials
[2] = tested on: FMR1-KO mice; assay: Open field, locomotive activity (hyperactivity); type: in vivo, mouse; details: chronic treatment, 15-minute period, treated vs FMR1-KO without treatment, saline control and Tianeptine (tianeptine group: FMR1-KO vs WT)
Source text: FIG. 1. Open-field distance travelled by the mice in a 15-minute period of time for the different treatments.
In all the groups of WT mice, locomotion was maintained without significant variations, about 4000 cm of distance travelled (FIG. 1); this test was used to check the mice's hyperactivity.

[3] = tested on: FMR1-KO mice; assay: Raised cross-shaped maze (anxiety); type: in vivo, mouse; details: chronic treatment, 5-minute period, treated vs FMR1-KO without treatment, saline control and Tianeptine (Tianeptine group: FMR1-KO vs WT)
Source text: FIG. 2. Percentage permanence time in the open arm of the raised cross-shaped maze in a 5-minute period of time for the different treatments.
This test is used to determine the anxiety of the animal model, under baseline and treated conditions.

[4] = tested on: FMR1-KO mice; assay: Measurement of corticosterone in serum; type: in vivo, mouse; details: FMR1-KO mice vs WT controls under the same treatment
Source text: FIG. 3. Concentration of corticosterone in mouse serum (ng/ml).

[5] = tested on: FMR1-KO mice; assay: Level of lipid peroxidation (TBARS) in cerebral membranes; type: in vivo, mouse; details: FMR1-KO vs WT under treatment; tianeptine: both genotypes vs saline control
Source text: FIG. 4. Concentration of TBARS in mouse cerebral membranes (nmol/mg protein).

[6] = tested on: FMR1-KO mice; assay: Reduced glutathione (GSH) in brain extract; type: in vivo, mouse; details: vs saline control
Source text: FIG. 5. Concentration of GSH in mouse brain extract (μmol/g protein). FMR1-KO (n=8): black bars and WT (n=9): white bars. *p<0.05 FMR1-KO vs. WT. # p<0.05 FMR1-KO vs. FMR1-KO. † p<0.05 WT vs. WT.

[7] = tested on: FMR1-KO mice; assay: Oxidised glutathione (GSSG, % of GSH) in brain extract; type: in vivo, mouse; details: vs saline and naive controls
Source text: FIG. 6. Percentage of GSSG with respect to GSH in mouse brain extract. FMR1-KO (n=8): black bars and WT (n=9): white bars. *p<0.05 FMR1-KO vs. WT. # p<0.05 FMR1-KO vs. FMR1-KO. † p<0.05 WT vs. WT.

[8] = tested on: Fmr1-KO mouse; details: chronic treatment; cited from earlier work
[9] = tested on: children with Autism; details: 18 children with Autism; cited from earlier work
[10] = human; cited from earlier work
[11] = tested on: patients with Alzheimer's disease; details: cited from earlier work
[12] = tested on: transgenic mouse model for Alzheimer's disease; details: cited from earlier work
[13] = tested on: cytotoxicity induced by L-buthionine-sulfoximine (BSO); details: BSO causes decrease in intracellular glutathione; cited from earlier work

COC(=O)N1CC[C@@H]2[C@H]1CCC[C@@]2(O)C#Cc1cccc(C)c1 [AFQ056]
Efficacy on symptoms in patients with Fragile X Syndrome [1]: demonstrates its effectiveness on the behavioural and learning problems

CN1CC(=O)NC1=NC(=O)Nc1cccc(Cl)c1 [Fenoban]
Efficacy on symptoms in patients with Fragile X Syndrome [1]: efficacy

CC(=O)O[C@H](CC(=O)[O-])C[N+](C)(C)C [L-acetylcarnitine]
Efficacy on symptoms in patients with Fragile X Syndrome [1]: efficacy in reducing hyperactivity and improving social relations

COc1ccc2[nH]cc(CCNC(C)=O)c2c1 [Melatonin]
Open-field total distance travelled [2]: lower (p<0.05) | Percentage permanence time in the open arm of the raised cross-shaped maze [3]: lower (p<0.05) | Concentration of corticosterone in serum [4]: maintained the same levels of corticosterone as compared to the WT controls | Levels of TBARS in cerebral membranes [5]: normalises the levels of TBARS | GSH in brain extract [6]: higher values of GSH | Percentage of GSSG with respect to GSH in brain extract [7]: normalised the values of GSSG | Efficacy on symptoms in patients with Fragile X Syndrome [1]: reduce the sleep problems | Effect on parameters characteristic of the syndrome (hyperactivity, anxiety disorder, cognitive deficit) [8]: normalising several parameters characteristic of the syndrome

CC12CC3CC(C)(C1)CC(N)(C3)C2 [Nemantine]
Patients showing symptoms of improvement ([1]; of 6 affected patients): 4

CN1c2ccccc2C(NCCCCCCC(=O)O)c2ccc(Cl)cc2S1(=O)=O (centres unmarked) [Tianeptine]
Open-field total distance travelled [2]: greater total travelled distance

O=C1O[C@H]([C@@H](O)CO)C(O)=C1O [Vitamin C, Ascorbic Acid]
Effect on symptoms of Autism [9]: significant decrease of some symptoms | Half-life [10]: 16 days

Cc1c(C)c2c(c(C)c1O)CC[C@@](C)(CCC[C@H](C)CCC[C@H](C)CCCC(C)C)O2 [Vitamin E, alpha-Tocopherol]
Open-field total distance travelled [2]: lower (p<0.05) | Percentage permanence time in the open arm of the raised cross-shaped maze [3]: lower (p<0.05) | Concentration of corticosterone in serum [4]: maintained the same levels of corticosterone as compared to the WT controls | Levels of TBARS in cerebral membranes [5]: normalises the levels of TBARS | GSH in brain extract [6]: higher values of GSH | Percentage of GSSG with respect to GSH in brain extract [7]: normalised the values of GSSG | Effect on parameters characteristic of the syndrome (hyperactivity, anxiety disorder, cognitive deficit) [8]: normalising several parameters characteristic of the syndrome | Effect on mental deterioration [11]: capable of delaying mental deterioration | Lipid peroxidation and amyloid deposition [12]: reduced lipid peroxidation and amyloid deposition | Protection against BSO-induced cytotoxicity [13]: significant protection

COc1cc2c(cc1OC)C(=O)C(CC1CCN(Cc3ccccc3)CC1)C2 (centres unmarked) [donezepil]
Efficacy on symptoms in patients with Fragile X Syndrome [1]: significantly improves cognitive and behavioural functions
